Measured values taken from US20190290623A1, “USE OF TIOTROPIUM BROMIDE TO PREVENT PULMONARY OXYGEN TOXICITY” (priority 2018, published 2019).
“Also recorded” adds a separate entry of the source.

Tests used:
Assay type in all cases: in vivo
[1] = tested on: swine exposed to 2.5 ATA hyperbaric oxygen for 5.5 hr; assay: Experiment 2 deep exposure simulation: Impulse Oscillometry (IOS); details: 2.5 ATA O2 5.5 hr, post-dive normalized to baseline, n=6/arm
Method: (§1) Experiment 2 is designed to evaluate the efficacy of tiotropium bromide pre-dive with respect to reducing decrements in pulmonary function due to PO2T following a 5.5 hour, 2.5 ATA hyperbaric oxygen exposure. This dive profile was selected because it caused the most significant pulmonary function deficits in humans with minimal risk of seizure due to CNS oxygen toxicity.
Hyperbaric Exposures: Individual animals were then placed into a Plexiglas box (30 in.×42 in.×38 in., manufactured in-house) within a Multiple Large Animal Chamber (MLAC), which is a steel-hulled hyperbaric chamber (450-cubic ft. floodable volume and pressure tested to 1,230 feet of seawater [fsw] equivalent) (Bethlehem Steel Corp, Bethlehem Pa.). Pressure/depth was monitored by a CPG 2500 Digital Pressure Gauge (Mensor Corp., San Marcos, Tex.). Swine were dove in pairs with each treatment group represented. Swine box assignment was alternated with respect to treatment to avoid any effects associated with individual box environmental features. Animals were monitored via closed-circuit television to observe signs of distress related to middle ear barotrauma (e.g. head shaking, nystagmus) and seizure activity. Oxygen concentration was measured and recorded using a portable O2 analyzer (Teledyne Analytical Inst, City of Industry, Calif.). […]

[2] = tested on: swine exposed to 1.5 ATA hyperbaric oxygen for 17.5 hr; assay: Experiment 1 shallow exposure simulation: pulmonary compliance; details: 1.5 ATA O2 17.5 hr; 18 mcg nebulized pre-dive; n=7; p=0.8364
Method: (§2) Experiment 1 is designed to evaluate the efficacy of tiotropium bromide administered pre-dive in reducing decrements in pulmonary function due to PO2T following a 17.5 hour, 1.5 ATA hyperbaric oxygen exposure. This dive profile was selected because it was of sufficient duration to elicit persistent pulmonary function decrement in humans.
(§3) The swine were anesthetized with propofol (20 cc, I.V. target, adjusted as needed to optimize sedation), intubated and ventilated. Anesthetized swine were shaved, then ECG and EEG electrodes were placed. Animals were then paralyzed with Atracurium Besylate (50 mg, IV) for accurate pulmonary function measurements of quasi-static and dynamic compliance.
Following baseline pulmonary function measurements, the swine were randomized to receive equivalent volumes of normal saline or tiotropium bromide (18 mcg) via nebulizer. The swine were then ventilated until muscle tone was regained. […]
Next, the swine were switched to 100% oxygen breathing gas and remained at 1.5 ATA for 17.5 hr. […] When fully sedated, the swine were ventilated, paralyzed with Atracurium Besylate, and post-dive measurements of pulmonary function were recorded. During all phases of study the swine were continuously monitored for signs of seizure or distress. […]

[3] = tested on: swine exposed to 2.5 ATA hyperbaric oxygen for 5.5 hr; assay: Experiment 2 deep exposure simulation: pulmonary capacity (pressure-volume loops); details: 2.5 ATA O2 5.5 hr
Method: as §1
Pulmonary function testing: The swine had disposable prewired electrodes adhered to the dermis over the gluteal muscle and a train of four (TOF) stimulation was initiated to confirm proper placement and twitch using a DigiStim III Peripheral Nerve Stimulator (Neuro Technology Inc., Kerrville, Tex.). Atracurium besylate (50 mg, IV) (hospira, Lake Forest, Ill.) was injected into the ear vein catheter, and the swine was observed until cessation of muscle twitch with TOFs. The swine was then disconnected from the ventilator circuit, allowed to passively exhale, and connected to an O2 filled 3 L super syringe (Hamilton Company, Reno, Nev.) attached to a pressure gauge (OMEGA®, Norwalk, Conn.), and pneumotachometer (Harvard Apparatus, Holliston, Mass.). Oxygen was introduced in 100 ml increments every 3 seconds until a static pressure of 40 cm H2O was reached. The lungs were then deflated in 100 ml increments until a static pressure of −40 cm H2O. The swine was then reconnected to the ventilator and ventilated for 2 minutes before repeating the insufflation and exhalation maneuvers and measurements one more time. […] After the above measurements, swine received either nebulized Tiotropium (18 μg dissolved in saline) or an equal volume of 0.9% saline through the breathing circuit over the course of 15 minutes. The propofol infusion was then stopped, the animals were then monitored until a swallow reflex was observed then extubated. The swine were then transported to the hyperbaric chamber suite and allowed to recover until capable of standing.
(§4) Hyperbaric Exposures: Individual animals were then placed into a Plexiglas box (30 in.×42 in.×38 in., manufactured in-house) within a Multiple Large Animal Chamber (MLAC), which is a steel-hulled hyperbaric chamber (450-cubic ft. floodable volume and pressure tested to 1,230 feet of seawater [fsw] equivalent) (Bethlehem Steel Corp, Bethlehem Pa.). Pressure/depth was monitored by a CPG 2500 Digital Pressure Gauge (Mensor Corp., San Marcos, Tex.). Swine were dove in pairs with each treatment group represented. Swine box assignment was alternated with respect to treatment to avoid any effects associated with individual box environmental features. Animals were monitored via closed-circuit television to observe signs of distress related to middle ear barotrauma (e.g. head shaking, nystagmus) and seizure activity. Oxygen concentration was measured and recorded using a portable O2 analyzer (Teledyne Analytical Inst, City of Industry, Calif.). After positioning the animal inside the Plexiglas box, the MLAC was sealed and pressurized using air at the rate of I ATA/minute to a depth of 2.5 ATA. After 2.5 min at a bottom depth equivalent to 2.5 ATA, the breathing gas was switched to 100% O2 and maintained for 5.5 Hrs. After completing 5.5 Hrs on 100% O2, the inspired gas was switched back to air for 3 min. Then, the chamber was decompressed at 1 ATA/minute. Upon reaching surface the animal was transported to the surgical suite for post-dive ECG and pulmonary function measurements (identical to the pre-dive procedures). The animal was then euthanized via ear vein infusion of Euthasol (1.0-1.5 ml/10 lbs body weight) followed by a saline flush (5 cc).
Pulmonary function data analysis: Pressure and flow data from the pressure gauge and pneumotachometer respectively were collected by a Dell Laptop (Round Rock, Tex.) and an analog-digital converter card (PCI-6052E, National Instruments, Austin, Tex.) with 16 bit resolution and 200 Hz sampling rate running Labchart 8.0. […]

[4] = tested on: swine exposed to 1.5 ATA hyperbaric oxygen for 17.5 hr; assay: Experiment 1 shallow exposure simulation: pulmonary capacities; details: 1.5 ATA O2 17.5 hr, percent change from baseline
Method: as §2, §3
Following baseline pulmonary function measurements, the swine were randomized to receive equivalent volumes of normal saline or tiotropium bromide (18 mcg) via nebulizer. The swine were then ventilated until muscle tone was regained. Sedation was discontinued and the swine were extubated, transported to the hyperbaric chamber and allowed to recover until able to independently stand. Once able to stand, animals had electrode leads attached and IV tubing connected to the ear vein catheter. The chamber hatch was then closed and the swine compressed to 1.5 ATA on air.
Next, the swine were switched to 100% oxygen breathing gas and remained at 1.5 ATA for 17.5 hr. At the end of the 17.5 hour 1.5 ATA oxygen exposure, swine surfaced at a rate of 1 ATA/minutes (ATA/min), were transferred to a Panepinto sling, sedated with diazepam (1.5-2.0 mg/kg, I.V) and reassessed via impulse Oscillometry. The swine were again anesthetized with propofol and intubated. When fully sedated, the swine were ventilated, paralyzed with Atracurium Besylate, and post-dive measurements of pulmonary function were recorded. During all phases of study the swine were continuously monitored for signs of seizure or distress.
Baseline and post-dive assessments of pulmonary compliance were conducted on each animal enrolled in the study. […] These values were expressed as percent change from baseline.

[5] = tested on: swine exposed to 2.5 ATA hyperbaric oxygen for 5.5 hr; assay: Experiment 2: adverse reactions / seizure observation; details: 2.5 ATA oxygen exposure
Source text: as §4, with “Upon reaching surface the animal was transported to the surgical suite for post-dive ECG and pulmonary function measurements (identical to the pre-dive procedures). The animal was then euthanized via ear vein infusion of Euthasol (1.0-1.5 ml/10 lbs body weight) followed by a saline flush (5 cc).” left out

## C[N+]1(C)[C@@H]2C[C@@H](OC(=O)C(O)(c3cccs3)c3cccs3)C[C@H]1[C@@H]1O[C@@H]12 [Tiotropium, tiotropium bromide]
[1]; all frequencies, p=0.0421
  IOS resistance in saline treated controls when compared to Tiotropium treated swine: significant decrease in resistance
[1]; p=0.0587
  IOS reactance in saline treated controls when compared to Tiotropium treated swine: decrease in reactance which approached significance; also recorded: decrease in reactance, which approached significance
[2]
  pulmonary compliance, baseline vs post-dive: no significant changes
[3]; 1st set of measurements
  change in VC following hyperbaric exposure: no change
[3]; 1st set of measurements, n=7, p=0.2217, mean ± SEM
  decrease in IC following hyperbaric exposure: 57.14 ± 34.11 mL
[3]; 1st set of measurements, n=7, p=0.6315, mean ± SEM
  increase in ERV following hyperbaric exposure: 57.14+62.65 ml
[3]; 2nd set of measurements, n=9, mean ± SEM
  increase in VC following hyperbaric exposure: 22.22+52.69 ml
[3]; 2nd set of measurements, n=9, p=0.4806, mean ± SEM
  increase in ERV following hyperbaric exposure: 44.44 ± 39.49 mL
[3]; 2nd set of measurements, n=9, p=0.5300, mean ± SEM
  decrease in IC following hyperbaric exposure: 33.33 ± 31.94 mL
[3]; percent change from baseline, averaged, p=0.266
  Inspiratory capacity, Saline vs Tiotropium groups: no significant differences
[3]; percent change from baseline, averaged, p=0.325
  Vital Capacity, Saline vs Tiotropium groups: no significant differences
[3]; percent change from baseline, averaged, p=0.900
  Expiratory Reserve Volume, Saline vs Tiotropium groups: no significant differences
[4]; p=0.394
  Vital Capacity, Saline vs Tiotropium: no significant differences
[4]; p=0.445
  Expiratory Reserve Volume, Saline vs Tiotropium: no significant differences
[4]; p=0.879
  Inspiratory capacity, Saline vs Tiotropium: no significant differences
[5]
  adverse reactions (including seizure): no adverse reactions
